Data set [1] relates to A549. As to the kind of experiment: Cytotoxicity against human A549 cells after 96 hrs by microplate reader analysis. The format is functional, cell-based. Conditions: A549, 96 h.
Data set [2] deals with HT-29. As to the kind of experiment: Cytotoxicity against human HT-29 cells after 96 hrs by microplate reader analysis. The format is functional, cell-based. The conditions noted are these: HT-29, 96 h.
Data set [3] relates to HCT-116. As to the kind of experiment: Cytotoxicity against human HCT116 cells after 96 hrs by microplate reader analysis. The format is functional, cell-based. The conditions noted are these: HCT-116, 96 h.
Data set [4] concerns Mus musculus. As to the kind of experiment: Toxicity in BALB/c mouse assessed as mortality at 0.75 mg/kg/day, iv administered on day 1, 5 and 9. The format is organism-based. Further details: route intravenous. The conditions noted are these: in vivo.
Data set [5] concerns Mus musculus. As to the kind of experiment: Toxicity in BALB/c mouse assessed as mortality at 1.5 mg/kg/day, iv administered on day 1, 5 and 9. The format is organism-based. On the set-up: route intravenous. The conditions noted are these: in vivo.
Data set [6] relates to Liver. As to the kind of experiment: Metabolic stability in BALB/c mouse liver microsomes at 1 umol/l by LC-MS/MS analysis. The format is ADME. Conditions: 1 µM.
Data set [7] deals with HCT-116. As to the kind of experiment: Antitumor activity against human HCT116 cells xenografted in BALB/c mouse assessed as tumor growth inhibition at 0.75 mg/kg/day, iv administered on day 1, 5 and 9 relative to control. Conditions: HCT-116, 24 h, read-out: TGI. The format is functional.
The subject of data set [8] is HCT-116. As to the kind of experiment: Antitumor activity against human HCT116 cells xenografted in BALB/c mouse assessed as tumor growth inhibition at 1.5 mg/kg/day, iv administered on day 1, 5 and 9 relative to control. The format is functional. The conditions noted are these: HCT-116, 24 h, read-out: TGI.
Data set [9] concerns HCT-116. As to the kind of experiment: Antitumor activity against human HCT116 cells xenografted in BALB/c mouse assessed as tumor growth inhibition at 7.5 mg/kg/day, iv administered on day 1, 5 and 9 relative to control. The format is functional. Conditions: HCT-116, 24 h, read-out: TGI. For orientation: In xenograft studies the graft and the host belong to different species.

Data set [10] relates to HCT-116. As to the kind of experiment: Antitumor activity against human HCT116 cells xenografted in BALB/c mouse assessed as tumor growth inhibition at 15 mg/kg/day, iv administered on day 1, 5 and 9 relative to control. The format is functional. The conditions noted are these: HCT-116, 24 h, read-out: TGI.
In data set [11] the test system is Mus musculus. As to the kind of experiment: Toxicity in BALB/c mouse assessed as mortality at 1.875 mg/kg/day, iv administered on day 1, 5 and 9. On the set-up: route intravenous. The format is organism-based. Conditions: in vivo.
Data set [12] deals with Mus musculus. As to the kind of experiment: Toxicity in BALB/c mouse assessed as mortality at 3.75 mg/kg/day, iv administered on day 1, 5 and 9. The format is organism-based. Further details: route intravenous. The conditions noted are these: in vivo.
Data set [13] deals with Mus musculus. As to the kind of experiment: Toxicity in BALB/c mouse assessed as mortality at 7.5 mg/kg/day, iv administered on day 1, 5 and 9. The format is organism-based. Further details: route intravenous. Conditions: in vivo.
The test system of data set [14] is Mus musculus. As to the kind of experiment: Toxicity in BALB/c mouse assessed as mortality at 15 mg/kg/day, iv administered on day 1, 5 and 9. The format is organism-based. Further details: route intravenous. Conditions: in vivo.
For data set [15], the system named is HCT-116. As to the kind of experiment: Antitumor activity against human HCT116 cells xenografted in BALB/c mouse assessed as tumor growth inhibition at 1.875 mg/kg/day, iv administered on day 1, 5 and 9 relative to control. The format is functional. The conditions noted are these: HCT-116, 24 h, read-out: TGI.
The subject of data set [16] is HCT-116. As to the kind of experiment: Antitumor activity against human HCT116 cells xenografted in BALB/c mouse assessed as tumor growth inhibition at 3.75 mg/kg/day, iv administered on day 1, 5 and 9 relative to control. The format is functional. The conditions noted are these: HCT-116, 24 h, read-out: TGI.

Regarding `COc1c(Cl)c2c(c(OC)c1OC)-c1ccc(OC)c(=O)cc1[C@@H](NC(=O)CCN(C)C)CC2`, the figures for the IC50 in data set [1], in data set [2] and in data set [3] were 0.96 µM, 0.354 µM and 0.539 µM, respectively.
For `COc1c(Cl)c2c(c(OC)c1OC)-c1ccc(OC)c(=O)cc1[C@@H](NC(=O)c1ccc([N+](=O)[O-])cc1)CC2` the same measures were 0.0112 µM, 0.0069 µM and 0.0062 µM.
The matching figures for `COc1ccccc1C(=O)N[C@H]1CCc2c(Cl)c(OC)c(OC)c(OC)c2-c2ccc(OC)c(=O)cc21`: 0.0132 µM, 0.0125 µM and 0.0264 µM.
As for `COc1c(Cl)c2c(c(OC)c1OC)-c1ccc(OC)c(=O)cc1[C@@H](NC(=O)c1ccc(F)cc1)CC2`, the IC50 turned out to be 0.0067 µM in data set [1], 0.0022 µM in data set [2] and 0.0055 µM in data set [3].
The matching figures for `COc1c(Cl)c2c(c(OC)c1OC)-c1ccc(OC)c(=O)cc1[C@@H](NC(=O)CCCO)CC2`: 0.357 µM, 0.168 µM and 0.175 µM.
The matching figures for `COc1c(Cl)c2c(c(OC)c1OC)-c1ccc(OC)c(=O)cc1[C@@H](NC(=O)CCCC(=O)O)CC2`: 5.36 µM, 2.25 µM and 3.68 µM.
For `COc1c(Cl)c2c(c(OC)c1OC)-c1ccc(OC)c(=O)cc1[C@@H](NC(=O)CCC(=O)O)CC2` the same measures were > 5 mg/L, 6.27 µM and 6.58 µM.
For the compound `COc1c(Cl)c2c(c(OC)c1OC)-c1ccc(OC)c(=O)cc1[C@@H](NC(=O)c1ccc(C#N)cc1)CC2`, the results for the IC50 in [1], in [2] and in data set [3] were 0.0119 µM, 0.0067 µM and 0.0067 µM, respectively.
For the compound `CCC(O)(CC)C(=O)N[C@H]1CCc2c(Cl)c(OC)c(OC)c(OC)c2-c2ccc(OC)c(=O)cc21`, the concentration for half-maximal inhibition (IC50) worked out at 0.038 µM in data set [1], 0.0365 µM in [2] and 0.0387 µM in data set [3].
The matching figures for `COc1c(Cl)c2c(c(OC)c1OC)-c1ccc(OC)c(=O)cc1[C@@H](NC(=O)c1ccccc1[N+](=O)[O-])CC2`: 0.0566 µM, 0.0317 µM and 0.0302 µM.
The matching figures for `COc1c(Cl)c2c(c(OC)c1OC)-c1ccc(OC)c(=O)cc1[C@@H](NC(=O)c1cccc([N+](=O)[O-])c1)CC2`: 0.0017 µM, 0.0001 µM and 0.0008 µM.
The matching figures for `COc1c(Cl)c2c(c(OC)c1OC)-c1ccc(OC)c(=O)cc1[C@@H](NC(=O)c1cc([N+](=O)[O-])cc([N+](=O)[O-])c1)CC2`: 0.0312 µM, 0.005 µM and 0.0068 µM.
In the case of `COc1c(Cl)c2c(c(OC)c1OC)-c1ccc(OC)c(=O)cc1[C@@H](NC(=O)c1cccc(F)c1)CC2`, the IC50 is 0.0035 µM in [1], 0.0015 µM in data set [2] and 0.0016 µM in data set [3].
The matching figures for `COc1ccc(C(=O)N[C@H]2CCc3c(Cl)c(OC)c(OC)c(OC)c3-c3ccc(OC)c(=O)cc32)c(OC)c1`: 0.0854 µM, 0.0531 µM and 0.0573 µM.
For `COc1c(Cl)c2c(c(OC)c1OC)-c1ccc(OC)c(=O)cc1[C@@H](NC(=O)c1ccccc1C#N)CC2` the same measures were 0.14 µM, 0.0497 µM and 0.104 µM.
On to `COc1c(Cl)c2c(c(OC)c1OC)-c1ccc(OC)c(=O)cc1[C@@H](NC(=O)c1ccccc1F)CC2`, for which the IC50 in data set [1] stood at 0.0017 µM; in data set [2] it was 0.0015 µM; in [3] it was 0.0016 µM.
Turning to `COc1c(Cl)c2c(c(OC)c1OC)-c1ccc(OC)c(=O)cc1[C@@H](NC(=O)[C@H](C)O)CC2`, the IC50 in data set [1] is 0.0187 µM; in [2], 0.0085 µM; in [3], 0.0079 µM.
Turning to `COc1c(Cl)c2c(c(OC)c1OC)-c1ccc(OC)c(=O)cc1[C@@H](NC(=O)c1ccccc1N(C)C)CC2`, the IC50 in [1] is 0.206 µM; in data set [2], 0.186 µM; in [3], 0.171 µM.
The matching figures for `COc1cc(C(=O)N[C@H]2CCc3c(Cl)c(OC)c(OC)c(OC)c3-c3ccc(OC)c(=O)cc32)cc(OC)c1OC`: 0.124 µM, 0.0477 µM and 0.0517 µM.
For `COc1c(Cl)c2c(c(OC)c1OC)-c1ccc(OC)c(=O)cc1[C@@H](NC(=O)c1ccccc1)CC2` the same measures were 0.0047 µM, 0.0016 µM and 0.0014 µM.
The matching figures for `COc1c(Cl)c2c(c(OC)c1OC)-c1ccc(OC)c(=O)cc1[C@@H](NC(=O)c1cc(F)c(F)c(F)c1)CC2`: 0.0066 µM, 0.0063 µM and 0.0072 µM.
With `COc1cc2c(c(OC)c1OC)-c1ccc(OC)c(=O)cc1[C@@H](NC(C)=O)CC2` [COLCHICINE], the Activity entry in [4] and in [5] was “Non-toxic” in each case. Moreover, the Stability in data set [6] is 1 µL/min/mg. Also, in data set [7], the inhibition in vivo at 0.75 mg/kg/day was determined as 14%. The inhibition in vivo at 1.5 mg/kg/day in data set [8] came out at 92.6%.
On to `COc1c(Cl)c2c(c(OC)c1OC)-c1ccc(OC)c(=O)cc1[C@@H](NC(=O)CC(C)C)CC2`, for which the results for the IC50 in data set [1], in [2] and in [3] were 0.0403 µM, 0.0161 µM and 0.0237 µM, respectively.
The matching figures for `COc1cc(OC)cc(C(=O)N[C@H]2CCc3c(Cl)c(OC)c(OC)c(OC)c3-c3ccc(OC)c(=O)cc32)c1`: 0.0142 µM, 0.0079 µM and 0.0065 µM.
For `COc1c(Cl)c2c(c(OC)c1OC)-c1ccc(OC)c(=O)cc1[C@@H](NC(=O)CS)CC2` the same measures were 0.4 µM, 0.209 µM and 0.192 µM.
With `COc1c(Cl)c2c(c(OC)c1OC)-c1ccc(OC)c(=O)cc1[C@@H](NC(=O)c1ccc(N(C)C)cc1)CC2`, the IC50 was 0.169 µM in [1], 0.148 µM in data set [2] and 0.15 µM in [3].
On to `COc1c(Cl)c2c(c(OC)c1OC)-c1ccc(OC)c(=O)cc1[C@@H](N)CC2`, for which the IC50 in data set [1] came out at 0.241 µM; in [2] it was 0.225 µM; in [3], 0.207 µM.
The matching figures for `COc1c(Cl)c2c(c(OC)c1OC)-c1ccc(OC)c(=O)cc1[C@@H](NC(=O)[C@@H](C)O)CC2`: 0.0195 µM, 0.0072 µM and 0.0077 µM.
The matching figures for `COc1c(Cl)c2c(c(OC)c1OC)-c1ccc(OC)c(=O)cc1[C@@H](NC(=O)CN(C)C)CC2`: 0.16 µM, 0.046 µM and 0.067 µM.
The matching figures for `COc1ccc(C(=O)N[C@H]2CCc3c(Cl)c(OC)c(OC)c(OC)c3-c3ccc(OC)c(=O)cc32)cc1`: 0.0038 µM, 0.008 µM and 0.008 µM.
Regarding `COc1c(Cl)c2c(c(OC)c1OC)-c1ccc(OC)c(=O)cc1[C@@H](NC(=O)CCO)CC2`, the results for the IC50 in data set [1], in data set [2] and in data set [3] were 0.23 µM, 0.0461 µM and 0.0486 µM, respectively.
For `CCCC(=O)N[C@H]1CCc2c(Cl)c(OC)c(OC)c(OC)c2-c2ccc(OC)c(=O)cc21` the same measures were 0.0098 µM, 0.0083 µM and 0.0076 µM.
With `COc1c(Cl)c2c(c(OC)c1OC)-c1ccc(OC)c(=O)cc1[C@@H](NC(C)=O)CC2`, the inhibition in vivo at 7.5 mg/kg/day in data set [9] was determined as 62.6%. In data set [10], the inhibition in vivo at 15 mg/kg/day amounted to 76.5%. Further, the Activity result in data set [11], in data set [12], in [13] and in data set [14] was “Non-toxic” throughout. For the same compound, in [6], the Stability is 28 µL/min/mg. For the same compound, in data set [15], the inhibition in vivo at 1.875 mg/kg/day stood at 36.7%. The inhibition in vivo at 3.75 mg/kg/day in data set [16] worked out at 56.4%.
In the case of `COc1c(Cl)c2c(c(OC)c1OC)-c1ccc(OC)c(=O)cc1[C@@H](NC(=O)c1cccc(C#N)c1)CC2`, the IC50 in data set [1] is 0.0074 µM; in [2] it was 0.0016 µM; in data set [3], 0.0041 µM.
For the compound `CCCCCCC(=O)N[C@H]1CCc2c(Cl)c(OC)c(OC)c(OC)c2-c2ccc(OC)c(=O)cc21`, the IC50 in data set [1] turned out to be 0.0497 µM; in [2] it was 0.0383 µM; in [3], 0.0369 µM.
The matching figures for `COc1c(Cl)c2c(c(OC)c1OC)-c1ccc(OC)c(=O)cc1[C@@H](NC(=O)C1CCCCC1)CC2`: 0.0104 µM, 0.0071 µM and 0.0072 µM.
For `COc1cccc(C(=O)N[C@H]2CCc3c(Cl)c(OC)c(OC)c(OC)c3-c3ccc(OC)c(=O)cc32)c1` the same measures were 0.0027 µM, 0.0014 µM and 0.0016 µM.

Broadly, the IC50 is the point on the concentration scale where inhibition reaches its midpoint. A lower IC50 goes with higher potency.
